Results taken from PMC8150775, “Repositioning Azelnidipine as a Dual Inhibitor Targeting CD47/SIRPα and TIGIT/PVR Pathways for Cancer Immuno-Therapy” (Biomolecules, 2021).

What was measured:
[1] = test system: peripheral blood mononuclear cells; set-up: method as in PMID 29398679, PMID 20606305; settings: cited from earlier work
CD47 = test: Flow cytometry of CD47 expression on CT26 cells in vitro; type: cell-based, mouse; settings: 20 μM, 24 h
Description: (§1) Cells in good growth condition were harvested and used to detect the expression of CD47 and PVR. Antibodies anti-human CD47 APC, anti-human PVR PE, anti-mouse-CD47 APC, anti-mouse-PVR APC, and matched isotype controls were purchased from eBioscience, San Diego, CA, USA. The effects of azelnidipine on the expression of CD47 and PVR was determined by incubating CT26 cells with 20 μM of azelnidipine for 24 h, or directly analyzing the tumor cells from tumor tissues of CT26-bearing mice treated with or without azelnidipine.
(§2) Figure S3. The effects of Azelnidipine on the expression of CD47 and PVR on CT26 tumor cells. (A and B) CT26 cells were incubated with 20 μM Azelnidipine or vehicle control for 24h, and analyzed the expression of CD47 (A) and PVR (B). The gray shaded histogram represents the isotype, the red line represents the cells treated with vehicle control, and the blue line represents the cells treated with Azelnidipine. (C and D) Tumor cells (CD45-) derived from the tumor tissues of CT26 tumor-bearing mice treated with normal saline (NS) or 5 mg/kg Azelnidipine for twelve days, were analyzed for the expression of CD47 (C) and PVR (D). n.s. means not […]
(§3) (1 picture or pasted object on this page, not shown here)

CT26 cells = test: Phagocytosis assay, BMDM co-cultured with CFSE-labeled CT26 cells; type: cell-based, mouse; settings: 20 μM, 4 h
Description: (§4) Bone marrow-derived macrophage (BMDM) cells were isolated from C57BL/6 or BALB/c mice and induced with 20 ng/mL of GM-CSF (Peprotech, Rocky Hill, CT, USA) for 7 days. Meanwhile, the medium was replaced with fresh medium containing the cytokine and the adherent cells were harvested. Phagocytosis assays were performed by a co-culture of the BMDM macrophages with carboxyfluorescein succinimidyl ester-labeled (CFSE^+) or GFP^+ tumor cells at a ratio of 1:4 in a serum-free medium at 37 °C for 4 h, in low-attachment 96-well tissue culture plates (Corning, New York, NY, USA). The cells were harvested and the macrophages were identified by a flow cytometry using anti-F4/80 antibody (eBioscience, San Diego, CA, USA). Then, 7-AAD (eBioscience) was used to exclude the dead cells. The effects of azelnidipine (20 μM) on phagocytosis by BMDM cells were tested, and the anti-CD47 antibody (clone: miap301) were used as the positive control. Phagocytosis rate was determined with the formulation: F4/80^+GFP^+ or F4/80^+CFSE^+ cells/ Total F4/80^+ cells.
(§5) Figure 4 Azelnidipine enhances macrophage mediated phagocytosis of the tumor cells. The effects of the azelnidipine on the phagocytosis of the macrophages were tested by a co-culture of the tumor cells and BMDM cell derived from C57BL/6 or BALB/c mice. […] GFP^+ or CFSE^+ BMDMs were detected by a flow cytometry. […]

PVR [2] = test: Flow cytometry of PVR expression on CT26 cells in vitro; type: cell-based, mouse; settings: 20 μM, 24 h
Description: as §1, §2, §3

human PD-1/PD-L1 = target: T1, human PD-1/PD-L1 (Homo sapiens, UniProt Q15116); test: Blocking assay, PD-1-Fc protein binding to CHOK1-hPD-L1 cells; settings: 100 μM
T1 construct: host or cells: CHOK1-hPD-L1 cells
T1 sequence (Q15116 25-167 limits assumed): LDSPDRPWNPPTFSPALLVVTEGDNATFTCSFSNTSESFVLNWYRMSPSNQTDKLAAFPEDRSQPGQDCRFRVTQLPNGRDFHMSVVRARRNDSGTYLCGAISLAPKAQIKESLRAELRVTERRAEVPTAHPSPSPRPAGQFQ
From the text: The small molecule inhibitor could not only bind to the target; most importantly, it should interfere with the receptor–ligand interactions. Subsequently, the candidate inhibitors were screened by the blocking assays with the established CD47 and TIGIT over-expressing cell lines. The test was initialed with a preliminary screening of the candidates with a single concentration (Figure 2D). Generally, the SMI blocking efficacy to the CD47/SIRPα interaction was much higher than that of the TIGIT/PVR. […] Therefore, the SMI-F11 and SMI-F17 may exert dual blocking effects in the CD47/SIRPα and TIGIT/PVR pathways. Blocking assays with a concentration gradient of the SMI were further performed to validate the preliminary screening. […] The similar blocking assays with the mouse CD47 and TIGIT over-expressing cells were also performed. […] Considering that most pairs of the immune checkpoints interact with the corresponding ligand in parallel forms, the blocking assays with the PD-1/PD-L1 interaction system was also conducted to test the specificity.
There are three supplemental Figures and one supplemental Table.
Supplemental figure and legend
Figure S1. The blocking efficacy of PD-1/PD-L1 by Azelnidipine. (A) The representative FACS histogram of blocking assay of Azelnidipine (100 μM) with CHOK1-hPD-L1 cells and PD-1-Fc protein (blue histogram). […]

MC38 cells = test: Phagocytosis assay, BMDM co-cultured with GFP+ MC38 cells; type: cell-based, mouse; settings: 20 μM, 4 h
Description: as §4, §5

PVR [3] = test: Flow cytometry of PVR expression on tumor cells from CT26-bearing mice; type: in vivo, mouse; settings: 5 mg/kg for twelve days, CD45- tumor cells
Description: as §1, §2, §3

blocking of human PD-1/PD-L1 interaction (human PD-1/PD-L1): could not block
Structure (SMILES): CC1=C(C(=O)OC(C)C)C(c2cccc([N+](=O)[O-])c2)C(C(=O)OC2CN(C(c3ccccc3)c3ccccc3)C2)=C(N)N1 (stereo not shown) [Azelnidipine]
cytokine secretion of peripheral blood mononuclear cells [1]: inhibit
expression of CD47 on CT26 cells (CD47): without suppressing
phagocytosis of CT26 cells by BMDM cells (CT26 cells): significantly enhance
expression of PVR on CT26 cells (PVR [2]): slightly inhibit
phagocytosis of MC38 cells by BMDM cells (MC38 cells): significantly enhance
expression of PVR on CT26 tumor cells derived from tumor tissues (PVR [3]): could inhibit the expression of PVR
